Legend:
[1] = test system: KB-3.1; assay: Cytotoxicity screening, KB-3.1 (MTT); type: cell-based, human; conditions: for EC50: 5 d treatment, MTT
Experimental: (§1) Half maximal effective concentrations (EC50) on human cancer cell lines were determined as described elsewhere. Human cancer cell lines were maintained as recommended by the depositor (German Collection of Microorganisms and Cell Cultures, DSMZ) and were treated for 5 d with carolacton in serial dilution. The viability of adherent cell types, HCT-116 (ACC 581), KB-3.1 (ACC-158) and KB-V.1 (ACC-149) was assessed by the addition of MTT tetrazolium salt and absorbance measurement at 570 nm. Histiocytic lymphoma U-937 cells (ACC-5) were maintained in RPMI 1640 medium and transferred into folate-free medium prior to the assay. Cell viability was determined by measuring alamar blue fluorescence emission at 590 nm. The values were referenced and EC50 values were determined by sigmoidal curve fitting. The cell lines KB-3.1 and KB-V.1 are originally derived from HeLa, whereas the latter is an MDR subclone of KB-3.1. They were used to directly compare the activity of carolacton on an mdr1 overexpressing and a sensitive cell line.

[2] = molecular target: T1, ecFolD Q98H (Escherichia coli, UniProt P24186, Q98H); assay: SPR binding to ecFolD Q98H; set-up: species or system E. coli
T1 construct: His-tag (TEV-cleavable, vector pHis-TEV); made in house; host or cells: E. coli BL21 (DE3)
Experimental: All surface plasmon resonance (SPR) experiments described in this study were performed on a Biacore X100 system. Different FolDs with or without His-tag were coupled on CM5 sensor chips (GE Healthcare) by the amine coupling method using a kit from GE Healthcare Life Sciences (Freiburg, Germany). A pH scouting process was performed before protein immobilization to test the most appropriate buffer and the protein concentration for protein coupling. Finally, 20 μg/mL of ecFolD in 10 mM maleate buffer (pH 6.8), 30 μg/mL of ecFolD Q98H in 10 mM maleate buffer (pH 6.3), 40 μg/mL of ecFolD K54N in 10 mM maleate buffer (pH 5.8), 20 μg/mL of spFolD in 10 mM maleate buffer (pH 6.0) and 15 μg/mL of MTHFD2 (His-tag cleaved) in 10 mM maleate buffer (pH 6.8) were used for coupling. In the protein immobilization procedure, the contact time was calculated based on the pH scouting results to achieve ~3000–5000 relative resonance units (RU). The buffer used in the SPR assays was 1× HBS-P buffer (10 mM HEPES pH 7.4, 150 mM NaCl, 0.05% Tween 20). The 1 mM stock solution of carolacton was prepared in 1× HBS-P buffer and diluted to different concentration ranges by two-fold serial dilution. In the SPR assay, the association time was 180 s and the dissociation time was 600 s. Data analysis was performed using the Biacore evaluation software. […]

[3] = test system: U-937; assay: Cytotoxicity screening, U-937 (alamar blue); type: cell-based, human; conditions: for EC50: 5 d, alamar blue
Experimental: as §1

[4] = test system: KB-V.1; assay: Cytotoxicity screening, KB-V.1 (MTT); type: cell-based, human; conditions: for EC50: MDR (Pgp-overexpressing) cell line, 5 d treatment, MTT
Experimental: as §1

**Q.** For `CO[C@H](CC(=O)O)[C@@H](C)C(=O)[C@H](C)/C=C(\C)[C@H]1OC(=O)[C@H](O)[C@H](O)/C=C/[C@H](C)CCC[C@@H]1C` [carolacton], which EC50 [1] is on record?
**A.** 11.3 ± 3.6 µM

**Q.** What about the EC50 ([1]; Homo sapiens, KB 3-1, 120 h) of the same compound?
**A.** 11 µM

**Q.** And the Maximum inhibition ([1]; inhibition of cell growth, 5 d)?
**A.** >80%

**Q.** What about the Kd [2] of the same compound?
**A.** 20 µM

**Q.** And the koff [2]?
**A.** 0.608 s⁻¹

**Q.** What about the EC50 ([3]; Homo sapiens, U-937, 120 h, folate-depleted medium) of the same compound?
**A.** 42 µM

**Q.** And the EC50 ([3]; Homo sapiens, U-937, 120 h, normal culture medium (RPMI 1640))?
**A.** > 100 µM

**Q.** What about the Maximum inhibition ([3]; folate-depleted medium) of the same compound?
**A.** 65–75%

**Q.** What about the EC50 ([3]; folate-depleted medium) of the same compound?
**A.** 41.7 ± 15.2 µM

**Q.** What about the EC50 ([4]; Homo sapiens, KB-V1, 120 h) of the same compound?
**A.** 42 µM

**Q.** And the EC50 [4]?
**A.** 41.8 ± 14.5 µM

**Q.** And the Maximum inhibition ([4]; inhibition of cell growth, 5 d)?
**A.** >80%

— PMC5688156, “The natural product carolacton inhibits folate-dependent C1 metabolism by targeting FolD/MTHFD” (Nature Communications, 2017)
